Measurements from patent US20120052555A1, “ENRICHMENT OF LISTERIA SPP” (SAMSUNG TECHWIN CO., LTD., priority 2010, published 2012).
“Also recorded” adds a separate entry of the source.

Experiments:
Listeria monocytogenes = assay: Effect of LiCl concentration in Minimal Medium A1 on cell growth (PCR Cp); type: cell-based; settings: LiCl 1, 3, 5, 7, 9 or 10 g/L in Minimal Medium A1
Procedure: 300 μL of overnight cultures (about of 3×10^9 CFU/ml) of Listeria monocytogenes in a brain hear infusion (BHI) medium was added into 30 mL of each of the pre-warmed media in 250 ml glass flask. Each mixture was cultured without shaking at 35° C. for 24 hours. Aliquots (20 μL) of the culture products were collected from each container after culture for 1, 2, 3, 4, 5, 6, 7, 8, 9 and 24 hours, respectively. Each culture product was treated with a TZ lysis buffer with 1 mg/ml proteinase K, and incubated at 55° C. for 15 min, 95° C. for 10 min, and cooled at 4° C. for 2 min. Cell lysates were added into the PCR mixture for real-time PCR. The PCR mixture contained forward and reverse primers of SEQ ID NOs. 5 and 6, the probe of SEQ ID No. 7, and the RNase H. The primers and probe were specific to the InlA gene of L. monocytogenes. The 5′ and 3′ ends of the probe were labeled with FAM and Iowa BFQ ([…]), respectively.
The PCR conditions were as follows: UNG activation at 37° C. for 600 seconds; Denaturation at 95° C. for 600 seconds; Denaturation at 95° C. for 15 seconds; and annealing and elongation at 60° C. for 20 seconds (50 cycles). […]

L. grayi strains = assay: Culture of five L. grayi strains in the presence of antibiotics; type: cell-based, Listeria grayi; settings: 35° C. in Minimal Media A1; 10 mg/L acriflavine, 40 mg/L nalidixic acid, 10 mg/L polymyxin B, 40 mg/L ceftazidime
Procedure: Separately, five L. grayi strains were cultured at 35° C. in the Minimal Media A1 supplemented separately with 10 mg/L of acriflavine, 40 mg/L of nalidixic acid, 10 mg/L of polymyxin B, 40 mg/L of ceftazidime, and a combination thereof. As a result, the effects of each antibiotic on the growth of L. grayi were trivial. […] The two strains reached maximum cell densities within about 24 hours.

[1] = system: heat-injured Listeria monocytogenes; assay: Recovery of sub-lethally heat-injured Listeria cells on Minimal Medium A1 agar; type: cell-based; settings: cells heated 50° C. 10 minutes; for effect in recovering heat-injured Listeria spp.: Minimal Medium supplemented with the agent
Procedure: Most Listeria infection cases are associated with pasteurized dairy products. Therefore, the effects of the Minimal Medium A1 on the recovery of sub-lethally heat-injured Listeria spp. were investigated. Overnight-cultured Listeria monocytogenes was serially diluted by 10 folds with PBS. 1 mL of the culture suspension (about 3780 CFU) was cultured at 50° C. for 10 minutes, and 0.1 mL of the culture product was inoculated on the Minimal Medium A1 in agar plate (1.5% agar) in the presence or non-presence of selective agents.
FIG. 4 is a graph illustrating the effects of medium ingredients on the recovery of heat-injured Listeria spp. […] In FIG. 4, “Pyruvate” indicates a Minimal Medium A1 supplemented with sodium pyruvate, “A1-NONE” indicates a Minimal Medium A1 supplemented with none, and “BHI-NONE” indicates a brain heart infusion medium supplemented with none. “Acriflavine,” “Nalidixic acid,” “Polymyxin B,” “Ceftazidime” and “All” denote Minimal Media A supplemented with […], 40 mg/L of nalidixic acid, 10 mg/L of polymyxin B, 40 mg/L of ceftazidime, and all of these antibiotics, respectively.

background microflora = assay: Effects of antibiotics on background microflora of ground beef (aerobic plate counts); type: cell-based; settings: 10 g/L ground beef, 35° C., Minimal Media A; among the four antibiotics
Procedure: In addition, effects of antibiotics on background microflora were investigated. First, 10 g/L of ground beef was cultured at 35° C. in the Minimal Media A supplemented separately with 10 mg/L of acriflavine, 40 mg/L of nalidixic acid, 10 mg/L of polymyxin B, 40 mg/L of ceftazidime, and a combination thereof. The cell concentrations before and after culture were determined based on aerobic plate counts. The aerobic plate counts were determined by inoculating 100 μL of the culture products into Difco® Plate Count agar medium, culturing the mixture at 35° C. for 24 hours, and counting cell colonies
FIG. 3 is a graph illustrating the effects of antibiotics on background microflora. Referring to FIG. 3, the growth of the background microfluora was inhibited about 100 times more strongly when the four antibiotics were added together, than when they were used individually.

Molecule: [Cl-].[Li+] [LiCl, lithium chloride]
- effect of LiCl concentration on Cp values / cell growth (Listeria monocytogenes): high LiCl concentration helped recovery of Listeria; also recorded: the smaller the Cp values and the more the cell growth was enhanced

Molecule: CC(C)(O/N=C(\C(=O)N[C@@H]1C(=O)N2C(C(=O)[O-])=C(C[n+]3ccccc3)CS[C@H]12)c1csc(N)n1)C(=O)O [ceftazidime]
- effect on the growth of L. grayi (L. grayi strains): trivial
- effect in recovering heat-injured Listeria spp. [1]: positive effects

Molecule: CCn1cc(C(=O)O)c(=O)c2ccc(C)nc21 [nalidixic acid]
- effect on the growth of L. grayi (L. grayi strains): trivial
- inhibitory effect on cell growth of background microflora (background microflora): strongest inhibitory effect on cell growth

Molecule: CC(=O)C(=O)[O-].[Na+] [sodium pyruvate]
- recovery rate of heat-injured Listeria spp. ([1]; 10 g/L of sodium pyruvate compared to 10 mM of MgCl2): recovery rate was improved
- effect in recovering heat-injured Listeria spp. [1]: positive effects

Molecule: acriflavine
- effect on the growth of L. grayi (L. grayi strains): trivial
- effect in recovering heat-injured Listeria spp. [1]: positive effects

Molecule: polymyxin B
- effect on the growth of L. grayi (L. grayi strains): trivial
- effect in recovering heat-injured Listeria spp. [1]: positive effects
